pIC50: −log10 of the molar value.
What was measured:
PKD (PKD1) = target: T1, PKD (PKD1) (Homo sapiens, UniProt Q15139); assay: in vitro kinase assay with purified recombinant kinase; also pS916 inhibition in PANC1 and HeLa cells; format: biochemical
T1 construct: gene PRKD1

EGFR(L858R)(h) = EGFR(L858R)(h) (Homo sapiens, UniProt P00533, L858R); assay: biochemical; design: in vitro kinase selectivity panel, protein and lipid kinases, single concentration, ATP at Km; conditions: ATP at Km
In short: (§1)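 Single-point screen against a protein and lipid kinase panel: inhibitor at 1 μM. ATP concentration for every kinase equivalent to its Km.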

FGFR2(h) = FGFR2(h) (Homo sapiens, UniProt P21802); assay: biochemical; design: in vitro kinase selectivity panel, protein and lipid kinases, single concentration, ATP at Km; conditions: ATP at Km
In short: as §1

CHKB = CHKB (Homo sapiens, UniProt Q9Y259); assay: biochemical; design: in vitro kinase selectivity panel, protein and lipid kinases, single concentration, ATP at Km; conditions: ATP at Km
In short: as §1

AMPKα1(h) = target: T2, AMPKα1(h) (Homo sapiens, UniProt Q13131); assay: biochemical; design: in vitro kinase selectivity panel, protein and lipid kinases, single concentration, ATP at Km; conditions: ATP at Km
T2 construct: gene PRKAA1
In short: as §1

Ron(h) = target: T3, Ron(h) (Homo sapiens, UniProt Q04912); assay: biochemical; design: in vitro kinase selectivity panel, protein and lipid kinases, single concentration, ATP at Km; conditions: ATP at Km
T3 construct: gene MST1R
In short: as §1

ROCK-I(h) = target: T4, ROCK-I(h) (Homo sapiens, UniProt Q13464); assay: biochemical; design: in vitro kinase selectivity panel, protein and lipid kinases, single concentration, ATP at Km; conditions: ATP at Km
T4 construct: gene ROCK1
In short: as §1

HIPK3(h) = HIPK3(h) (Homo sapiens, UniProt Q9H422); assay: biochemical; design: in vitro kinase selectivity panel, protein and lipid kinases, single concentration, ATP at Km; conditions: ATP at Km
Chain of HIPK3(h) (Q9H422 whole entry): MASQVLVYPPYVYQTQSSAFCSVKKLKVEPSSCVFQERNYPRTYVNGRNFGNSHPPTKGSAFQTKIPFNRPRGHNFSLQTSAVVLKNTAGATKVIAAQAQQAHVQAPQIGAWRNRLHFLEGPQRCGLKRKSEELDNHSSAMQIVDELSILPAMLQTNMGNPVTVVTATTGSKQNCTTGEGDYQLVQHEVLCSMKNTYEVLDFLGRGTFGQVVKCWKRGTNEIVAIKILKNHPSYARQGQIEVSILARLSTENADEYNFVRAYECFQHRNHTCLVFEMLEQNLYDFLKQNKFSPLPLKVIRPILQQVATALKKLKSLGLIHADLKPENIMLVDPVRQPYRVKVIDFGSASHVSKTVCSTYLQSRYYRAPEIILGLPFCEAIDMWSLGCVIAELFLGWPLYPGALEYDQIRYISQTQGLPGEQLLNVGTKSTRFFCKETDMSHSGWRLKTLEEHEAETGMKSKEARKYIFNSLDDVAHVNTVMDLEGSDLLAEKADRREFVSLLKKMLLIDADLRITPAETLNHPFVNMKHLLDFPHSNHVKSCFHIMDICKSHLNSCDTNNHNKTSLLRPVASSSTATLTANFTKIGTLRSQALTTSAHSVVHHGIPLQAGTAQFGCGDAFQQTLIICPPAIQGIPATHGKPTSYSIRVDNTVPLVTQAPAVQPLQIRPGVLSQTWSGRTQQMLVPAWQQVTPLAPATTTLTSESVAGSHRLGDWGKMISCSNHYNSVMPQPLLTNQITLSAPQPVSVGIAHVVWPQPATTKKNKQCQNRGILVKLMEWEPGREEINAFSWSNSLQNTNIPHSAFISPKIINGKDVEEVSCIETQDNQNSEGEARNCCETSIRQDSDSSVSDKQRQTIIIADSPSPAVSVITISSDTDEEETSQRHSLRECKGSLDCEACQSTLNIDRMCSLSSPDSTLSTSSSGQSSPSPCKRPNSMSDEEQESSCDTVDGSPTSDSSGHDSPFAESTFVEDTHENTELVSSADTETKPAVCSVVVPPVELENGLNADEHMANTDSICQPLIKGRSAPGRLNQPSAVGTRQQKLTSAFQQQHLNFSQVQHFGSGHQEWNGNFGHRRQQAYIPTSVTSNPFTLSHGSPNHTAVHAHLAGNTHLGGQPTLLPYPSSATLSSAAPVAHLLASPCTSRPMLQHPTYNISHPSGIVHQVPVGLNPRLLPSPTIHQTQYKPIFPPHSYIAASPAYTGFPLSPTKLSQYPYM
In short: as §1

Pim-1(h) = target: T5, Pim-1(h) (Homo sapiens, UniProt P11309); assay: biochemical; design: in vitro kinase selectivity panel, protein and lipid kinases, single concentration, ATP at Km; conditions: ATP at Km
T5 construct: gene PIM1
In short: as §1

PIK3CB / p85 (h) = target: T6, PIK3CB / p85 (h) (Homo sapiens, UniProt P42338); assay: biochemical; design: in vitro kinase selectivity panel, protein and lipid kinases, single concentration, ATP at Km; conditions: ATP at Km
T6 construct: p110beta/p85
In short: as §1

DDR2(h) = DDR2(h) (Homo sapiens, UniProt Q16832); assay: biochemical; design: in vitro kinase selectivity panel, protein and lipid kinases, single concentration, ATP at Km; conditions: ATP at Km
In short: as §1

PDGFRβ(h) = target: T7, PDGFRβ(h) (Homo sapiens, UniProt P09619); assay: biochemical; design: in vitro kinase selectivity panel, protein and lipid kinases, single concentration, ATP at Km; conditions: ATP at Km
T7 construct: gene PDGFRB
T7 sequence (P09619 whole entry): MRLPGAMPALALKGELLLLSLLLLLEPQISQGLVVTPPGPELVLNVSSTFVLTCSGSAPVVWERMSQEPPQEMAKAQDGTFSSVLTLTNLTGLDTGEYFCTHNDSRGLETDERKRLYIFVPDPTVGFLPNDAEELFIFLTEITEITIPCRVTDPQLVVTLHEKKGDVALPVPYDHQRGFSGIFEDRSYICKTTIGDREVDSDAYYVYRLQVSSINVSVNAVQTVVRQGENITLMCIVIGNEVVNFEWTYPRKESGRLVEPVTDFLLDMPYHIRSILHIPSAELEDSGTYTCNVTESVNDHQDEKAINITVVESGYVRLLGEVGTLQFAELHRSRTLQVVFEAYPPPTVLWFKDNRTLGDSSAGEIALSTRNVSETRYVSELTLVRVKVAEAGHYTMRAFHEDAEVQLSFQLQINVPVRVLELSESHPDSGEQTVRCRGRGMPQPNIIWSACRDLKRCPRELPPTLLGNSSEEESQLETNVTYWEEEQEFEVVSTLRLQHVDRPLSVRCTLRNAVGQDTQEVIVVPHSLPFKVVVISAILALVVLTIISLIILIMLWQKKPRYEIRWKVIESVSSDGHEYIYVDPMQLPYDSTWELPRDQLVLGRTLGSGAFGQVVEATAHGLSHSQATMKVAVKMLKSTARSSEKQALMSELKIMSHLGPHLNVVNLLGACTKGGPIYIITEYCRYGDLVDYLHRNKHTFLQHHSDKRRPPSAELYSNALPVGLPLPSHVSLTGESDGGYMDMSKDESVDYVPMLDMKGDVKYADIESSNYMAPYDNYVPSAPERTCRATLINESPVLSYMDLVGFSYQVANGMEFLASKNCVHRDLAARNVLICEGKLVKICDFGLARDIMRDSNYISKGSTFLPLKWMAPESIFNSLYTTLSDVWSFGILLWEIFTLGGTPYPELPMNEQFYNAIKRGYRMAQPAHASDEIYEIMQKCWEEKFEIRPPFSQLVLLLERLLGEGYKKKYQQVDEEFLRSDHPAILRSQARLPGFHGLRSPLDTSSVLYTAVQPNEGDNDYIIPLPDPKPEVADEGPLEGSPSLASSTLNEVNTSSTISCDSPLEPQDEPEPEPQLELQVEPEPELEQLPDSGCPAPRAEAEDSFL
In short: as §1

MAPK2(h) = target: T8, MAPK2(h) (Homo sapiens, UniProt P28482); assay: biochemical; design: in vitro kinase selectivity panel, protein and lipid kinases, single concentration, ATP at Km; conditions: ATP at Km
T8 construct: gene MAPK1
T8 sequence (P28482 whole entry): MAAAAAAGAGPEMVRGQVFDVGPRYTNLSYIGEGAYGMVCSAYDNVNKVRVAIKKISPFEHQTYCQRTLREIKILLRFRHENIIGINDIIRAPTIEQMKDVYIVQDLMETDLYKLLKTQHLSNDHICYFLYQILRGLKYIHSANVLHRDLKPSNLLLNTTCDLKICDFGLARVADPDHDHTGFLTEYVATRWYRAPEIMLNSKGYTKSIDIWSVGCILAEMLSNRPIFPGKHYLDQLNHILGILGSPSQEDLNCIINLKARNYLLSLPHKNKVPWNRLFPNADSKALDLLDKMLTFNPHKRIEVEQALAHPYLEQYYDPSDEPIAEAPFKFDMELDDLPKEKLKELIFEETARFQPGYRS
In short: as §1

DGKZ = DGKZ (Homo sapiens, UniProt Q13574); assay: biochemical; design: in vitro kinase selectivity panel, protein and lipid kinases, single concentration, ATP at Km; conditions: ATP at Km
In short: as §1

PKCα(h) = target: T9, PKCα(h) (Homo sapiens, UniProt P17252); assay: biochemical; design: in vitro kinase selectivity panel, protein and lipid kinases, single concentration, ATP at Km; conditions: ATP at Km
T9 construct: gene PRKCA
In short: as §1

Mer(h) = target: T10, Mer(h) (Homo sapiens, UniProt Q12866); assay: biochemical; design: in vitro kinase selectivity panel, protein and lipid kinases, single concentration, ATP at Km; conditions: ATP at Km
T10 construct: gene MERTK
In short: as §1

EGFR(h) = EGFR(h) (Homo sapiens, UniProt P00533); assay: biochemical; design: in vitro kinase selectivity panel, protein and lipid kinases, single concentration, ATP at Km; conditions: ATP at Km
Chain of EGFR(h) (P00533 whole entry): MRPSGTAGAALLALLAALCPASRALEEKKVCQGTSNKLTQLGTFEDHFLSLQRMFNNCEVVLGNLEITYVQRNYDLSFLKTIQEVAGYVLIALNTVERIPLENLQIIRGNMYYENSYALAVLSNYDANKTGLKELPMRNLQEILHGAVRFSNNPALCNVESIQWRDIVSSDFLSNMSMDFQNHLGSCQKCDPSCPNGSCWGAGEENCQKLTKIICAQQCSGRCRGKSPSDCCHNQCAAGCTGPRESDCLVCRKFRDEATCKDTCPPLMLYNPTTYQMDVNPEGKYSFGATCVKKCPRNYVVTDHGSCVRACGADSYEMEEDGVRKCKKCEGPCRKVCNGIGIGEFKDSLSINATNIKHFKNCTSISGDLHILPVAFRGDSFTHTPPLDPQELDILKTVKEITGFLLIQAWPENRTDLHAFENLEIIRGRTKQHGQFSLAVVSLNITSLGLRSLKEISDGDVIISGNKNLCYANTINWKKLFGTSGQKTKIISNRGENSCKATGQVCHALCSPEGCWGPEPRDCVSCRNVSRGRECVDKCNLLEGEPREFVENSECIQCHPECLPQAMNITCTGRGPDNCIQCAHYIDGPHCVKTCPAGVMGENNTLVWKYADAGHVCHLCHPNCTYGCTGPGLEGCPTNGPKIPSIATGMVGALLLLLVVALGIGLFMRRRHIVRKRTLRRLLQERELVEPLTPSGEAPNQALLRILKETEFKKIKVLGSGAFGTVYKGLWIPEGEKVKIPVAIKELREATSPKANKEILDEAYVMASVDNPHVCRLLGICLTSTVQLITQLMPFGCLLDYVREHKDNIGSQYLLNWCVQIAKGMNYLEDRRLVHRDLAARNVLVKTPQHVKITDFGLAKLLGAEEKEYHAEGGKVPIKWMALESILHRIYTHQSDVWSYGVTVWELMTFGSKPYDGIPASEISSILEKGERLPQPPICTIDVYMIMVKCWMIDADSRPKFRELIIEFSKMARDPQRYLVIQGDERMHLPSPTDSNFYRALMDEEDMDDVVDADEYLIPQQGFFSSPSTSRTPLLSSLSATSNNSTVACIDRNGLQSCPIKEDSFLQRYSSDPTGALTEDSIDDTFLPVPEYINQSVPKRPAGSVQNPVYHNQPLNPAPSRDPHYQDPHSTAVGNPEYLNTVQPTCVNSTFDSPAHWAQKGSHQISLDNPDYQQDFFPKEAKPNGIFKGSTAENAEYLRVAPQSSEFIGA
In short: as §1

Chain of EGFR(L858R)(h) (P00533 whole entry L858R): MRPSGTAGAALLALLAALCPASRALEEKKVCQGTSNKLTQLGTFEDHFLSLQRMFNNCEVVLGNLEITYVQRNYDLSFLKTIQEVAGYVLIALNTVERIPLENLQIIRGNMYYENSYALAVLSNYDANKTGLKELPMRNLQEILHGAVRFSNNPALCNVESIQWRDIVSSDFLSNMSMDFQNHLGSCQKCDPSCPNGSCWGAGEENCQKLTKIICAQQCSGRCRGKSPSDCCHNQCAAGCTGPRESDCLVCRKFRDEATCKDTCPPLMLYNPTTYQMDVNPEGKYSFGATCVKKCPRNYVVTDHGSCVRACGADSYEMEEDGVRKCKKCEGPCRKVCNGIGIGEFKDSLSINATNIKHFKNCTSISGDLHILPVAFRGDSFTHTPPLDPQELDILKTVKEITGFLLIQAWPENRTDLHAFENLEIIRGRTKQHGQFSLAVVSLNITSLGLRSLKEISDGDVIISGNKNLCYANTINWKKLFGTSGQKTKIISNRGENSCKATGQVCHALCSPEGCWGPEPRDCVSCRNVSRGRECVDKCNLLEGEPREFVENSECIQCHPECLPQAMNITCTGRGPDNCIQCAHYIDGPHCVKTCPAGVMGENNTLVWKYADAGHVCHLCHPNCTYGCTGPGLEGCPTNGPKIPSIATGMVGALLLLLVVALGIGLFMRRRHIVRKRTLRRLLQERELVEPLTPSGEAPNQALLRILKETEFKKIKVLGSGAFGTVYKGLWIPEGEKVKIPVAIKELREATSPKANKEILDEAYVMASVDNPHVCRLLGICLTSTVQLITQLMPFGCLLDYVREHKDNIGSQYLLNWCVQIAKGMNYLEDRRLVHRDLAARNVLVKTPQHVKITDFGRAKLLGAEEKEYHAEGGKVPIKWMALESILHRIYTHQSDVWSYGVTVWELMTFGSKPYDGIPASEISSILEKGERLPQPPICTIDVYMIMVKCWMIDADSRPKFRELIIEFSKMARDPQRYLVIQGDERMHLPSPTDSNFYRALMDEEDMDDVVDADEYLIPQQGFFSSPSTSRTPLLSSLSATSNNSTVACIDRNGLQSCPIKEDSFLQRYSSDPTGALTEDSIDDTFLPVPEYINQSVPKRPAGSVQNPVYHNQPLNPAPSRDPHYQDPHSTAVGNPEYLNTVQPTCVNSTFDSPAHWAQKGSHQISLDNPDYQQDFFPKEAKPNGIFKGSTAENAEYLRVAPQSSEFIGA

SMILES: CC[C@@H](N)CNc1ccnc(-c2cc(-c3cnn(C)c3)ccc2O)n1 [CRT0066101]
- pIC50 (PKD (PKD1)): 9.00
- inhibition at 1 µM (EGFR(L858R)(h)): -1%
- inhibition at 1 µM (FGFR2(h)): 5%
- inhibition at 1 µM (CHKB): 3%
- inhibition at 1 µM (AMPKα1(h)): 17%
- inhibition at 1 µM (Ron(h)): -8%
- inhibition at 1 µM (ROCK-I(h)): 4%
- inhibition at 1 µM (HIPK3(h)): 14%
- inhibition at 1 µM (Pim-1(h)): 98%
- inhibition at 1 µM (PIK3CB / p85 (h)): 0%
- inhibition at 1 µM (DDR2(h)): -3%
- inhibition at 1 µM (PDGFRβ(h)): -1%
- inhibition at 1 µM (MAPK2(h)): -9%
- inhibition at 1 µM (DGKZ): -1%
- inhibition at 1 µM (PKCα(h)): 4%
- inhibition at 1 µM (Mer(h)): 66%
- inhibition at 1 µM (EGFR(h)): -6%

From article PMC5391474, “Investigation of the Role of Protein Kinase D in Human Rhinovirus Replication” (Journal of Virology, 2017)
